Reference: patent publication US20230020329A1, “Annelated 9-hydroxy-1,8-dioxo-1,3,4,8-tetrahydro-2H-pyrido[1,2-a]pyrazine-7-carboxamides as HIV integrase inhibitors, methods of preparation and application thereof” (priority 2019, published 2023)
Read-outs that look alike come from different tables or passages of the source.

Tests used:
rat plasma proteins = assay: Plasma protein binding by equilibrium dialysis, rat; format: in vitro ADME; settings: for Binding class / Extraction / Permeability: rat; for Bound: rat plasma diluted to 50%, 37° C.; for Bound / Extraction / Permeability: 1 μM, 4 h; for Permeability: dialysis membrane
Description: To assess protein binding, pooled samples of blood plasma diluted with phosphate buffer up to 50% were used. The test was carried out in a teflon coated 48-well dialysis plate. Each well contained two separate chambers separated by a vertical semipermeable dialysis membrane with 8 kDa pores. A plasma sample with 1 μM of the test compound was placed into one of the chambers, and a buffer solution (pH=7.2) was placed in the other chamber. Over time, at 37° C. while rocking, passive diffusion of the unbound compound occurred and after 4 hours the equilibrium state between the chambers with plasma and the buffer solution was reached. The amount of free fraction was evaluated by HPLC-MS/MS following precipitation of the proteins by acetonitrile. Also, the study involved evaluation of stability of the substance during the 4-hour period and passive permeability through the dialysis membrane in the buffer by mass balance. Warfarin was used as the control compound. The results are presented in Table 4, from which it follows that the compounds of general formula 1.1 have a high degree of binding to human and rat plasma proteins.

HIV-1 (IIIB strain) = assay: Anti-HIV cytoprotection assay (XTT), HIV-1 IIIB in CEM-SS cells; format: cell-based; settings: CEM-SS cell line, read-out: Inhibitory activity (EC50) against HIV-1 (IIIB strain)
In short: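 CEM-SS cells infected with a pre-titrated virus dose killing 85–95% of cells by day 6; protection from HIV-induced death read by XTT formazan. Compounds screened in triplicate at 30 and 10 nM, actives retested at 2 nM; AZT six-concentration curve on each plate as positive control.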

C[C@H]1CO[C@@H]2Cn3cc(C(=O)NCc4ncc(F)cc4F)c(=O)c(O)c3C(=O)N12 [Compound 1.1.17, (3S,11aR)-6-hydroxy-N-[(3,5-difluoropyridin-2-yl)methyl]-3-methyl-5,7-dioxo-2,3,5,7,11,11a-hexahydro[1,3]oxazolo[3,2-a]pyrido[1,2-d]pyrazine-8-carboxamide]
Binding class (rat plasma proteins): High | Bound (rat plasma proteins): 99.9% | Extraction (rat plasma proteins): 108% | Permeability (rat plasma proteins): 90.9% | EC50 (HIV-1 (IIIB strain); Human immunodeficiency virus 1, IIIB, CEM-SS): 0.24 nM

C[C@H]1CO[C@@H]2Cn3cc(C(=O)NCc4ccc(F)nc4F)c(=O)c(O)c3C(=O)N12 [Compound 1.1.19, (3S,11aR)-6-hydroxy-N-[(2,6-difluoropyridin-3-yl)methyl]-3-methyl-5,7-dioxo-2,3,5,7,11,11a-hexahydro[1,3]oxazolo[3,2-a]pyrido[1,2-d]pyrazine-8-carboxamide]
Binding class (rat plasma proteins): High | Bound (rat plasma proteins): 98.9% | Extraction (rat plasma proteins): 94.5% | Permeability (rat plasma proteins): 83.8% | EC50 (HIV-1 (IIIB strain)): 0.24 nM
